Experimental data: PMC7108291 (Spectrochimica Acta. Part A, Molecular and Biomolecular …, 2009)

Legend:
Test in all cases: tryptophan fluorescence quenching titration at […] °C
Type in all cases: binding
DNase I = DNase I (Bos taurus, UniProt P00639)
RNase A = target: T1, RNase A (Bos taurus, UniProt P61823)
T1 sequence (P61823 27-150): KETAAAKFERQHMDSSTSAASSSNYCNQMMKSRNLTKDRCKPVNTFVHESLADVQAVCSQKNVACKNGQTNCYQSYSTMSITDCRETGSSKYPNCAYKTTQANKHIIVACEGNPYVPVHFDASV

Taq polymerase = Taq polymerase (Thermus aquaticus, UniProt P19821)
Taq polymerase, sequence (P19821 whole entry): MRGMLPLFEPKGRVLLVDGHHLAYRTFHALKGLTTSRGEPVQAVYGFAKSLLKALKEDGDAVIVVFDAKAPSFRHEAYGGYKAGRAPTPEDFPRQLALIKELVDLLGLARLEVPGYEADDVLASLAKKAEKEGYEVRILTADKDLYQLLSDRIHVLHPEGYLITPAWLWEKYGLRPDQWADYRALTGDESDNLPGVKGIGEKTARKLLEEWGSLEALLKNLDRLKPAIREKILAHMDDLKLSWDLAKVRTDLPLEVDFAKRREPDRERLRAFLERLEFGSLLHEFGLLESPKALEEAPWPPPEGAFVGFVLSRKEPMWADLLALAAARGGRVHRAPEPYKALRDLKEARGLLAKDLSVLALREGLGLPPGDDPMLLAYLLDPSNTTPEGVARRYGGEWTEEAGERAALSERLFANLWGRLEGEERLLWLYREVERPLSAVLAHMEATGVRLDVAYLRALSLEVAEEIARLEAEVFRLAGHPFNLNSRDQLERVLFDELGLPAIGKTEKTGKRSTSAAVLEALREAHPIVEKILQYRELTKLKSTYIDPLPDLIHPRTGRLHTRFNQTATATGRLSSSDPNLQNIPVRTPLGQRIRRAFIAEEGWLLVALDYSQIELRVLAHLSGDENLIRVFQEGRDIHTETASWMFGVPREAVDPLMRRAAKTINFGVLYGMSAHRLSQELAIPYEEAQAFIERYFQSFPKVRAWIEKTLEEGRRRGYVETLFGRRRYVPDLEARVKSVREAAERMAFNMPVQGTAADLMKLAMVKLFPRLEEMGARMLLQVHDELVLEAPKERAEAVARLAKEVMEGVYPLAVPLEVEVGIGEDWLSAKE

DNase I, sequence (P00639 23-282): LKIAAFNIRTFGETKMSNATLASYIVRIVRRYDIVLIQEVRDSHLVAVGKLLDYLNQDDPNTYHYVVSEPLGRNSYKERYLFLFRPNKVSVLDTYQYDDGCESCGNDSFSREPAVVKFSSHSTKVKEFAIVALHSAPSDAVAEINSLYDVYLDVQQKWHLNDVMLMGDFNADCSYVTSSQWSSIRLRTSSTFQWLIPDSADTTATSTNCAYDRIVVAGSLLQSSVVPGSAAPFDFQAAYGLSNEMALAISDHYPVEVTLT

O=C(O)C1=CC(=C(c2ccc(O)c(C(=O)O)c2)c2ccc(O)c(C(=O)O)c2)C=CC1=O [ATA, aurintricarboxylic acid]
Kd (DNase I): 9.02 µM
Kd (RNase A): 2.33 µM
Kd (Taq polymerase): 82 µM
